Test results taken from patent US9029384B2, “Phosphatidylinositol 3-kinase inhibitors” (Gilead Calistoga LLC, priority 2012, dated 2015).

Columns and labels:
PI3Kδ = target: T1, PI3Kδ (Homo sapiens, UniProt O00329); assay: Enzymatic activity of PI3K isoforms, TR-FRET assay (PIP3 formation); assay type: biochemical; conditions: PI3Kδ; TR-FRET, 2×Km ATP, 10 μM PIP2; read-out: IC50
T1 construct: made in house
Description: Enzymatic Activity of PI3K Isoforms
The TR-FRET assay was used to monitor formation of the product 3,4,5-inositol triphosphate molecule (PIP3) as it competed with fluorescently labeled PIP3 for binding to the GRP-1 pleckstrin homology domain protein. An increase in […] product results in a decrease in TR-FRET signal as the labeled fluorophore is displaced from the GRP-1 protein binding site.
Class I PI3K isoforms were expressed and purified as heterodimeric recombinant proteins. All assay reagents and buffers for the TR-FRET assay were purchased from Millipore. […] After an assay reaction time of 30 minutes at 25° C., reactions were terminated with a final concentration of 10 mM EDTA, 10 nM labeled-PIP3, and 35 nM Europium labeled GRP-1 detector protein before reading TR-FRET on an Envision plate reader (Ex: 340 nm; Em: 615/665 nm; 100 μs delay and 500 μs read window).
Data are normalized based on a positive (1 uM wortmanin) and negative (DMSO) controls. The α, β, δ, and γ IC50 values were calculated from the fit of the dose-response curves to a four-parameter equation. IC50 are reported in units of nM.
IC50 values were obtained for all PI3K isoforms (α, β, δ, and γ), and Table 2 summarizes the IC50 data collected for PI3Kδ in this Example B1.

basophils = assay: Basophil activation in human whole blood (Flow2 CAST kit, CD63 positive cells); assay type: cell-based; conditions: basophils activated with anti-FcεRI mAb or fMLP, geometric mean
Description: Effect on basophil activation was measured in human whole blood using the Flow2 CAST® kit (Buhlmann Laboratories AG, Baselstrasse, Switzerland) following the protocol provided by the manufacturer with minor modifications. Human whole blood was collected into K2-EDTA venipuncture tubes. Whole blood samples were treated with either DMSO (0.3% final) or a serial dilution of compounds in DMSO for 60 minutes at 37° C. Basophils were then activated either with anti-FcεRI mAb or with fMLP. To activate basophils using the anti-FcεRI mAb; 50 μl of whole blood was mixed with 110 μl of stimulation buffer (B-BAT-STB) and 20 μl of anti-FcεRI (B-BAT-STCON). To activate basophils with fMLP; 50 μl of whole blood was mixed with 80 μl of stimulation buffer (B-BAT-STB) and 50 μl of fMLP (B-CCR-FMLP). Stimulation buffer was used as a negative control. 20 μl of the staining reagent (combination of anti-human CD63-FITC and anti-human CCR3-PE mAbs) was then added to each tube. […] Subsequently, erythrocytes were lysed and fixed by the addition of 2 ml of lysing solution (B-BAT-LYR) for 10 min at room temperature. Cells were pelleted by centrifugation at 1200 rpm for 10 min at room temperature in a swing-out rotor. Supernatant was aspirated and cell pellet resuspended in 400 μl of wash buffer. Flow cytometric analysis of the basophil activation was performed on a FC500MPL flow cytometer (Beckman Coulter Inc., Fullerton, Calif.). CCR3-staining and side scatter were applied to gate at least 200 basophils that expressed a high density of CCR3. The percent CD63 positive cells within the gated basophil population were determined in different treatment groups and normalized to the vehicle control (0.3% DMSO) with anti-FcεRI mAb of fMLP stimulus as 100%. Final compound concentration was adjusted to correct for dilution effect of added reagents. The EC50 values were calculated from the analysis of the dose-response curves to a four-parameter equation. All EC50 values represent geometric mean values and are reported in units of nM.

T1 sequence (O00329 whole entry, canonical isoform): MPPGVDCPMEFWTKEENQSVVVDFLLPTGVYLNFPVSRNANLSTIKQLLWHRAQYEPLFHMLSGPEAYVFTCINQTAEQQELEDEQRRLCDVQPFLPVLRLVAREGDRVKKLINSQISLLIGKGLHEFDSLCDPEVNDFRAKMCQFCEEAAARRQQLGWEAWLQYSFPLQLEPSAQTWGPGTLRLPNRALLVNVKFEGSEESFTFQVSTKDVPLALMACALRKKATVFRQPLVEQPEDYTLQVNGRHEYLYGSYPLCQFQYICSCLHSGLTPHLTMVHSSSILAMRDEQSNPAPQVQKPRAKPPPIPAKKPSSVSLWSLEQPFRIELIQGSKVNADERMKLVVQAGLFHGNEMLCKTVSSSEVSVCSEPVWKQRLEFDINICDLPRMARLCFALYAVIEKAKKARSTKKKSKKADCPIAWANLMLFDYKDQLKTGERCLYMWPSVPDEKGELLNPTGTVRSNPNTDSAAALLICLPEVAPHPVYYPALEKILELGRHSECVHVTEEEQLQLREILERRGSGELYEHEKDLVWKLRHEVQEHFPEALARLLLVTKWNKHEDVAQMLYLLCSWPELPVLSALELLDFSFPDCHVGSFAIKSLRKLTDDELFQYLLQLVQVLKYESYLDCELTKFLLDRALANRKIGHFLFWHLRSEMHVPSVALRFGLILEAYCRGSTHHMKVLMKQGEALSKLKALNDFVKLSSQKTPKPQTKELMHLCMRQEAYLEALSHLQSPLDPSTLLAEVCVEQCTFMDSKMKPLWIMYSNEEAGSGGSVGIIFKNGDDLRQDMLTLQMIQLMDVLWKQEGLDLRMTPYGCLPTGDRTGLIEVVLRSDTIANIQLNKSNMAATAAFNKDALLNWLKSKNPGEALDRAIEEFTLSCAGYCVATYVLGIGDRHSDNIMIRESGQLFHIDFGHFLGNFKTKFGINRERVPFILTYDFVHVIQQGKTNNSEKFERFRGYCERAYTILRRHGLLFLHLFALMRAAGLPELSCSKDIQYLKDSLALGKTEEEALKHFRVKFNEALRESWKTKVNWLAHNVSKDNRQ
T1 sequence (P27986 whole entry partner, canonical isoform): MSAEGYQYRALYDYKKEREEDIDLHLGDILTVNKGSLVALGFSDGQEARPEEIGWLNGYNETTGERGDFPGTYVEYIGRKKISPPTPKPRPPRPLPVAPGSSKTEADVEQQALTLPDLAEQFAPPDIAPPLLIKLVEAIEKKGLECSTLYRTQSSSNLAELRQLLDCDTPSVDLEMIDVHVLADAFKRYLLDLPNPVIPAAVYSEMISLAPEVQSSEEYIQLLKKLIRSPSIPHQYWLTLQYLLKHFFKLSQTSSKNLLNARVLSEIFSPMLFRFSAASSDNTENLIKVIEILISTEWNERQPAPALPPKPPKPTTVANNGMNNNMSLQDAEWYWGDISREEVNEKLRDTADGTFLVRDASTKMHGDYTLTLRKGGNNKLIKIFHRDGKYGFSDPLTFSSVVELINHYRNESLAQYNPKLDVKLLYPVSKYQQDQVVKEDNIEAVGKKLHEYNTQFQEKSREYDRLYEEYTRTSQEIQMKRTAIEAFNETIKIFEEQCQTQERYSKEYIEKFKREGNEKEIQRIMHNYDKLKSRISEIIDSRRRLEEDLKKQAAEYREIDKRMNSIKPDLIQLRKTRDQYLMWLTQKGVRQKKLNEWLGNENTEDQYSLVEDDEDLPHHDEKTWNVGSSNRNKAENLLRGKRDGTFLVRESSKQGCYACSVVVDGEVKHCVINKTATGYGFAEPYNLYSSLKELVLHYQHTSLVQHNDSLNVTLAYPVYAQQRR

| Structure (SMILES) | IC50 (PI3Kδ) [nM] | EC50 (basophils; Homo sapiens) [nM] | EC50 (basophils) [nM] |
| --- | --- | --- | --- |
| CC(Nc1nc(N)nc(N)c1C#N)c1nc2cccc(F)c2c(=O)n1-c1cc(C(F)F)cc(C(F)F)c1 (single isomer, unassigned) [Compound 136a] | > 50 | – | – |
| COc1ccc(C)c(-n2c(C(C)Nc3nc(N)nc(N)c3C#N)nc3cccc(Cl)c3c2=O)c1 (single isomer, unassigned) [Compound 187a-1] | 1 to 10 | – | 10 to 50 |
| CCC(Nc1nc(N)nc(N)c1C#N)c1nc2cccc(F)c2c(=O)n1-c1cccc(C(F)(F)F)c1 (single isomer, unassigned) [Compound 46a] | 10 to 50 | – | – |
| CC(Nc1nc(N)nc(N)c1C#N)c1nc2cccc(F)c2c(=O)n1-c1cc(C(F)F)cc(C(F)F)c1 (single isomer, unassigned) [Compound 118a] | > 50 | – | – |
| CCC(Nc1nc(N)nc(N)c1C#N)c1nc2ccc(F)c(F)c2c(=O)n1-c1cc(F)cc(F)c1 (single isomer, unassigned) [Compound 30a] | 10 to 50 | – | – |
| CC(Nc1nc(N)nc(N)c1C#N)c1nc2cccc(Br)c2c(=O)n1-c1cccc(F)c1 (single isomer, unassigned) [Compound 130a] | < 1 | – | – |
| Cc1c(-n2c(C(C)Nc3nc(N)nc(N)c3C#N)nc3cccc(Cl)c3c2=O)ccc(F)c1F (single isomer, unassigned) [Compound 204a-2] | 1 to 10 | – | – |
| N#Cc1c(N)nc(N)nc1NC(CC(F)(F)F)c1nc2ccc(F)cc2c(=O)n1-c1ccccc1 (single isomer, unassigned) [Compound 132a] | > 50 | – | – |
| CC(Nc1nc(N)nc(N)c1C#N)c1nc2cccc(F)c2c(=O)n1-c1cc(Cl)cc(C(F)F)c1 (single isomer, unassigned) [Compound 114a] | > 50 | – | – |
| N#Cc1cccc(-n2c(CNc3nc(N)nc(N)c3C#N)nc3c(Cl)cccc3c2=O)c1 [Compound 84, 2,4-diamino-6-((8-chloro-3-(3-cyanophenyl)-4-oxo-3,4-dihydroquinazolin-2-yl)methylamino)pyrimidine-5-carbonitrile] | > 50 | – | – |
| N#Cc1c(N)nc(N)nc1NCc1nc2cc(F)c(F)cc2c(=O)n1-c1cc(F)cc(F)c1 [Compound 80, 2,4-diamino-6-((3-(3,5-difluorophenyl)-6,7-difluoro-4-oxo-3,4-dihydroquinazolin-2-yl)methylamino)pyrimidine-5-carbonitrile] | > 50 | – | – |
| CC(Nc1nc(N)nc(N)c1C#N)c1nc2ccc(C#N)cc2c(=O)n1-c1ccccc1 (single isomer, unassigned) [Compound 159a] | > 50 | – | – |
| CC(Nc1nc(N)nc(N)c1C#N)c1nc2cccc(F)c2c(=O)n1-c1cc(C(F)(F)F)cc(C(F)(F)F)c1 (single isomer, unassigned) [Compound 88a] | > 50 | – | – |
| COc1cccc(-n2c(C(C)Nc3nc(N)nc(N)c3C#N)nc3cccc(Cl)c3c2=O)c1C (single isomer, unassigned) [Compound 109a-1] | 10 to 50 | – | – |
| CCC(Nc1nc(N)nc(N)c1C#N)c1nc2ccc(Cl)c(F)c2c(=O)n1-c1cc(F)cc(F)c1 (single isomer, unassigned) [Compound 86a] | > 50 | – | – |
| CC(Nc1nc(N)nc(N)c1C#N)c1nc2cccc(C(=O)O)c2c(=O)n1-c1ccccc1 (single isomer, unassigned) [Compound 162a, 2-(1-((2,6-diamino-5-cyanopyrimidin-4-yl)amino)ethyl)-4-oxo-3-phenyl-3,4-dihydroquinazoline-5-carboxylic acid] | > 50 | – | – |
| Cc1c(-n2c(C(C)Nc3nc(N)nc(N)c3C#N)nc3cccc(Cl)c3c2=O)ccc(F)c1F (single isomer, unassigned) [Compound 204a-1] | 10 to 50 | – | – |
| CCC(Nc1nc(N)nc(N)c1C#N)c1nc2cccc(F)c2c(=O)n1-c1cc(F)cc(C(F)F)c1 (single isomer, unassigned) [Compound 65a] | 10 to 50 | – | – |
| CCC(Nc1nc(N)nc(N)c1Cl)c1nc2cccc(F)c2c(=O)n1-c1cc(F)cc(F)c1 (single isomer, unassigned) [Compound 105a] | > 50 | – | – |
| CC(Nc1nc(N)nc(N)c1C#N)c1nc2cccc(Cl)c2c(=O)n1-c1cc(C#N)cc(C#N)c1 (single isomer, unassigned) [Compound 87a] | > 50 | – | – |

Results, then the compound that gave them:

| IC50 (PI3Kδ) [nM] | EC50 (basophils; Homo sapiens) [nM] | EC50 (basophils) [nM] | Structure (SMILES) |
| --- | --- | --- | --- |
| > 50 | – | – | CC(Nc1nc(N)nc(N)c1C#N)c1nc2c(C(F)(F)F)cccc2c(=O)n1-c1cc(F)cc(F)c1 (single isomer, unassigned) [Compound 34a] |
| 10 to 50 | – | – | CCC(Nc1nc(N)nc(N)c1C#N)c1nc2c(F)cc(F)cc2c(=O)n1-c1cc(F)cc(F)c1 (single isomer, unassigned) [Compound 69a] |
| 1 to 10 | 10 to 50 | – | COc1cc(-n2c(C(C)Nc3nc(N)nc(N)c3C#N)nc3cccc(Cl)c3c2=O)ccc1F (single isomer, unassigned) [Compound 186a] |
| > 50 | – | – | N#Cc1c(N)nc(N)nc1NC(CC(F)(F)F)c1nc2cccc(Cl)c2c(=O)n1-c1cc(F)cc(F)c1 (single isomer, unassigned) [Compound 165a] |
| > 50 | – | – | COc1cc(F)cc(-n2c(C(C)Nc3nc(N)nc(N)c3C#N)nc3cccc(Cl)c3c2=O)c1C (single isomer, unassigned) [Compound 110a-1] |
| 10 to 50 | – | – | CC(Nc1nc(N)nc(N)c1C#N)c1nc2c(C(F)F)cccc2c(=O)n1-c1cc(F)cc(F)c1 (single isomer, unassigned) [Compound 57a] |
| > 50 | – | – | N#Cc1c(N)nc(N)nc1NC(CC(F)(F)F)c1nc2ccc(F)cc2c(=O)n1-c1cc(F)cc(F)c1 (single isomer, unassigned) [Compound 133a] |
| > 50 | – | – | CC(Nc1nc(N)nc(N)c1C#N)c1nc2cccc(C#N)c2c(=O)n1-c1cc(F)cc(C#N)c1 (single isomer, unassigned) [Compound 113a] |
| 10 to 50 | – | – | Cc1cccc2c(=O)n(-c3cccc(C(F)(F)F)c3)c(C(C)Nc3nc(N)nc(N)c3C#N)nc12 (single isomer, unassigned) [Compound 39a] |
| 10 to 50 | – | – | CCc1cccc2c(=O)n(-c3cc(F)cc(F)c3)c(C(C)Nc3nc(N)nc(N)c3C#N)nc12 (single isomer, unassigned) [Compound 103a] |
| > 50 | – | – | CC(Nc1nc(N)nc(N)c1C#N)c1nc2ccc(Cl)c(F)c2c(=O)n1-c1cc(F)cc(F)c1 (single isomer, unassigned) [Compound 85a] |
| 10 to 50 | – | – | CC(Nc1nc(N)nc(N)c1C#N)c1nc2cccc(F)c2c(=O)n1-c1cc(F)cc(C#N)c1 (single isomer, unassigned) [Compound 32a] |
| 10 to 50 | – | – | CC(Nc1nc(N)nc(N)c1C#N)c1nc2cccc(C#N)c2c(=O)n1-c1cc(F)cc(C(F)F)c1 (single isomer, unassigned) [Compound 138a] |
| > 50 | – | – | N#Cc1c(N)nc(N)nc1NC(CC(F)(F)F)c1nc2cccc(F)c2c(=O)n1-c1cc(F)cc(F)c1 (single isomer, unassigned) [Compound 166a] |
| 10 to 50 | – | – | Cc1ccc(F)c2c(=O)n(-c3cc(F)cc(C#N)c3)c(C(C)Nc3nc(N)nc(N)c3C#N)nc12 (single isomer, unassigned) [Compound 83a] |
| > 50 | – | – | COc1cccc2c(=O)n(-c3cc(F)cc(F)c3)c(C(C)Nc3nc(N)nc(N)c3C#N)nc12 (single isomer, unassigned) [Compound 68a] |
| > 50 | – | – | CC(Nc1nc(N)nc(N)c1S(C)(=O)=O)c1nc2cccc(Cl)c2c(=O)n1-c1cc(F)cc(F)c1 (single isomer, unassigned) [Compound 94a] |
| 10 to 50 | – | – | CC(Nc1nc(N)nc(N)c1C#N)c1nc2cc(F)c(F)cc2c(=O)n1-c1cc(F)cc(F)c1 (single isomer, unassigned) [Compound 79a] |
| 1 to 10 | – | – | COc1cc(F)cc(-n2c(C(C)Nc3nc(N)nc(N)c3C#N)nc3cccc(Cl)c3c2=O)c1C (single isomer, unassigned) [Compound 110a-2] |
| > 50 | – | – | CC(Nc1nc(N)nc(N)c1C#N)c1nc2cccc(F)c2c(=O)n1-c1cc(F)cc(C(F)(F)F)c1 (single isomer, unassigned) [Compound 33a] |
